Usually IC50 stands for the midpoint of a concentration-inhibition curve. A lower IC50 goes with greater potency.

Three compounds from publication PMC11095988, “The Molecular Mechanism of FABP4 Inhibition Effects of GAS and 4-HBA in Gastrodia elata Blume Was Discussed Based on NMR and Molecular Docking” (Journal of Analytical Methods in Chemistry, 2024) can be followed below.

Experiment [1] has as its target T1, FABP4 (Homo sapiens, UniProt P15090).
T1 sequence (P15090 2-132): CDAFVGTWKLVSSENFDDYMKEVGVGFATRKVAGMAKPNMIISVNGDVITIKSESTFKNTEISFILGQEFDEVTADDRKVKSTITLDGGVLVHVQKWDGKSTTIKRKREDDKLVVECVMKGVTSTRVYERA
As to the kind of experiment: fluorescent probe, emission shift on binding to FABP4.

The target of experiment [2] is T1, FABP4. Briefly: fluorescence displacement; STD-NMR (weak signal) and ligand-observed 1H-NMR. In kind it is binding.
Experiment [3] concerns the target T1, FABP4. Briefly: fluorescence displacement; STD-NMR and ligand-observed 1H-NMR. It is filed as binding.

For the compound `O=S(=O)(O)c1cccc2cccc(Nc3ccccc3)c12` [1,8-ANS, 8-anilino-1-naphthalenesulfonic acid], the “fluorescent probe, emission shift on binding to FABP4” value on FABP4 [1] is “When ANS binds to FABP4, its maximum emission light will be blue-shifted”. As for `OCc1ccc(O)cc1` [4-HBA, 4-hydroxybenzyl alcohol], the IC50 on FABP4 [2] is 50.5 µM. In turn, `OCc1ccc(O[C@@H]2O[C@H](CO)[C@@H](O)[C@H](O)[C@H]2O)cc1` [GAS, gastrodin] displayed an IC50 at FABP4 [3] of 29.8 µM.
